Data from patent US20230174521A1, “NOVEL DIACYLGLYCERIDE O-ACYLTRANSFERASE 2 INHIBITORS” (Merck Sharp & Dohme LLC, priority 2020, published 2023).

Target: T1, human DGAT2 (hDGAT2) (Homo sapiens, UniProt Q96PD7)
T1 construct: made in house; host or cells: Sf-9 insect cells (baculovirus infection); membrane fraction
T1 sequence (Q96PD7 1-388): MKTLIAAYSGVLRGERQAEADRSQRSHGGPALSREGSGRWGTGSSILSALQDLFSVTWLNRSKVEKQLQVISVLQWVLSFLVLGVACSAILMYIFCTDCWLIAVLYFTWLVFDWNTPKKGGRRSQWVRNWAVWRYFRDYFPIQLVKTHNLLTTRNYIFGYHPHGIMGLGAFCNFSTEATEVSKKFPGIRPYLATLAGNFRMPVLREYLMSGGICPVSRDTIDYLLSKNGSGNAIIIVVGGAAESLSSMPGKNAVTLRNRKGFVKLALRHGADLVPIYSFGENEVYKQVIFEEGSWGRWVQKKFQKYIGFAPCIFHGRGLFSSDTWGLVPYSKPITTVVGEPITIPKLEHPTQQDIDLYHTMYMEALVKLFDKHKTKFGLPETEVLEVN
Assay: DGAT2 enzymatic activity assay (LC/MS/MS detection of 13C18-triolein, Sf-9 membrane prep)
Assay type: biochemical
Settings: hDGAT2 Sf-9 membrane, 25 μM diolein, 5 μM 13C oleoyl-CoA, rt
Procedure: Sf-9 insect cells were maintained in Grace's insect cell culture medium with 10% heated-inactivated fetal bovine serum, 1% Pluronic F-68 and 0.14 μg/ml Kanamycine sulfate at 27° C. in a shaker incubator. After infection with untagged baculovirus expressing human DGAT2 (hDGAT2) at multiplicity of infection (MOI) 3 for 48 hours, cells were harvested. Cell pellets were suspended in buffer containing 10 mM Tris-HCl pH 7.5, 1 mM EDTA, 250 mM sucrose and Complete Protease Inhibitor Cocktail (Sigma Aldrich), and sonicated on ice. Cell debris were removed by centrifugation at 2000×g for 15 minutes. Membrane fractions were isolated by ultracentrifugation (100,000×g), resuspended in the same buffer, and frozen (−80° C.) for later use. The protein concentration was determined with the Pierce™ BCA Protein Assay Kit (Thermo Fisher Scientific). Expression of protein levels was analyzed by immunoblotting with rabbit anti-DGAT2 antibody (Abcam, ab102831) and donkey anti-rabbit IgG H&L Alexa Fluor® 647 (Abcam, ab150075) followed by detection using Typhoon FLA9000 (GE Healthcare).
LC/MS/MS analyses were performed using Thermal Fisher's LX4-TSQ Vantage system. This system consists of an Agilent binary high-performance liquid chromatography (HPLC) pumps and a TSQ Vantage triple quadrupole MS/MS instrument. For each sample, 2 μL samples from the top organic layer of in-plate liquid-liquid extraction were injected onto a Thermo Betabasic C4 column (2.1 mm×20 mm, 5 μm particle size). The samples were then eluted using the following conditions; mobile phase: Isopropanol: acetonitrile/10 mM ammonium formate=50/35/15 (v/v/v), flow rate: 0.8 mL/min, temperature: 25° C. Data was acquired in positive mode using a heated electrospray ionization (HESI) interface. The operational parameters for the TSQ Vantage MS/MS instrument were a spray voltage of 3000 V, capillary temperature of 280° C., vaporizer temperature 400° C., sheath gas 45 arbitrary unit, Aux gas 10 arbitrary units, S-lens 165 and collision gas 1.0 mTorr. […] (SRM) chromatograms of ^13C18-triolein (Q1: 920.8>Q3:621.3) and internal standard ^13C21-triolein (Q1: 923.8>Q3:617.3) were collected for 33 sec. The peak area was integrated by Xcalibur Quan software. The ratio between the ^13C18triolein generated in the reaction and spiked in internal standard ^13C21-triolein was used to generate percentage inhibition and IC50 values. Compound percentage inhibition was calculated by the following formula: Inhibition %=1−[(compound response−low control)/(high control−low control)]×100%. Potent compounds were titrated and IC50 were calculated by 4 parameter sigmoidal curve fitting formula.
DGAT2 activity was determined by measuring the amount of enzymatic product ^13C18-triolein (^13C-1,2,3-Tri(cis-9-octadecenoyl)glycerol) using the membrane prep mentioned above. The assay was carried out in ABgene 384-well assay plates in a final volume of 25 μL at rt. The assay mixture contained the following: assay buffer (100 mM Tris.Cl, pH 7.0, 20 mM MgCl2, 5% ethanol), 25 μM of diolein, 5 μM of ^13C oleoyl-CoA and 8 ng/μL of DGAT2 membrane.

Compound | IC50 [µM]
C[C@]1(NC(=O)c2ccc3c(c2)c(N2CCOCC2)nn3-c2cccc(OC(F)F)c2)CCS(=O)(=O)C1 [Example 48, (S)-1-[3-(difluoromethoxy)phenyl]-N-(3-methyl-1,1-dioxo-thiolan-3-yl)-3-morpholino-indazole-5-carboxamide] | 0.375
C[C@]1(NC(=O)c2ccc3c(c2)c(-c2ccc(F)cc2)cn3-c2cccc(OC(F)F)c2)CCS(=O)(=O)C1 [Example 6, (S)-1-(3-(difluoromethoxy)phenyl)-3-(4-fluorophenyl)-N-(3 - methyl-1,1-dioxidotetrahydrothiophen-3-yl)-1H-indole-5-carboxamide] | 0.0005
CCC(O)c1nn(-c2cccc(OC(F)F)c2)c2ccc(C(=O)NC3(C)CS(=O)(=O)C3)cc12 (single isomer, unassigned) [Example 28a, 1-(3-(difluoromethoxy)phenyl)-3-(1-hydroxypropyl)-N-(3-methyl-1,1-dioxidothietan-3-yl)-1H-indazole-5-carboxamide] | 0.024
CC1(NC(=O)c2ccc3c(ccn3-c3cccc(OC(F)F)c3)c2)CS(=O)(=O)C1 [Example 8, 1-(3-(difluoromethoxy)phenyl)-N-(3-methyl-1,1-dioxidothietan-3-yl)-1H-indole-5-carboxamide] | 0.134
CC1(NC(=O)c2ccc3c(c2)c(C(O)C(F)F)nn3-c2cccc(OC(F)F)c2)CS(=O)(=O)C1 (racemic) [Example 31] | 0.094
CC1(NC(=O)c2cnc3c(c2)c(C2CCOCC2)nn3-c2cccc(OC(F)F)c2)CS(=O)(=O)C1 [Example 21] | 0.0071
CC(C)Oc1nn(-c2cc(OC(F)F)ccc2F)c2ncc(C(=O)NC3(C)CS(=O)(=O)C3)cc12 [Example 55, 1-(5-(difluoromethoxy)-2-fluorophenyl)-3-isopropoxy-N-(3-methyl-1,1-dioxidothietan-3-yl)-1H-pyrazolo[3,4-b]pyridine-5-carboxamide] | 0.093
CC1(NC(=O)c2cnc3c(c2)c(C(C)(O)C(F)F)nn3-c2cccc(OC(F)F)c2)CS(=O)(=O)C1 (centres unmarked) [Example 43, 3-(1,1-difluoro-2-hydroxypropan-2-yl)-1-(3 - (difluoromethoxy)phenyl)-N-(3-methyl-1,1-dioxidothietan-3-yl)-1H-pyrazolo[3,4-b]pyridine-5-carboxamide] | 0.118
CC1(NC(=O)c2cc(F)c3c(c2)c(C(C)(C)O)nn3-c2cccc(OC(F)F)c2)CS(=O)(=O)C1 [Example 37, l-(3-(difluoromethoxy)phenyl)-7-fluoro-3-(2-hydroxypropan-2-yl)-N-(3-methyl-1,1-dioxidothietan-3-yl)-1H-indazole-5-carboxamide] | 0.015
Cc1c(C(=O)NC2(C)CS(=O)(=O)C2)ccc2c1c(C(C)C)nn2-c1cccc(OC(F)F)c1 [Example 20] | 0.005
CC(C)(O)Cc1nn(-c2cc(OC(F)F)ccc2F)c2ncc(C(=O)NC3(C)CS(=O)(=O)C3)cc12 [Example 24, l-(5-(difluoromethoxy)-2-fluorophenyl)-3-(2-hydroxy-2-methylpropyl)-N-(3-methyl-1,1-dioxidothietan-3-yl)-1H-pyrazolo[3,4-b]pyridine-5-carboxamide] | 0.0064
CCc1nn(-c2cccc(OC(F)F)c2)c2ccc(C(=O)NC3(C)CS(=O)(=O)C3)cc12 [Example 14, l-(3-(difluoromethoxy)phenyl)-3-ethyl-N-(3-methyl-1,1-dioxo-thietan-3-yl)indazole-5-carboxamide] | 0.011
CC1(NC(=O)c2cnc3c(c2)c(C(C)(C)O)nn3-c2cncc(OC(F)F)c2)CS(=O)(=O)C1 [Example 47, 1-(5-(difluoromethoxy)pyridin-3-yl)-3-(2-hydroxypropan-2-yl)-N-(3-methyl-1,1-dioxidothietan-3-yl)-1H-pyrazolo[3,4-b]pyridine-5-carboxamide] | 0.091
CC1(NC(=O)c2cc(Cl)c3c(c2)c(C(C)(C)O)nn3-c2cccc(OC(F)F)c2)CS(=O)(=O)C1 [Example 35, 7-chloro-1-(3-(difluoromethoxy)phenyl)-3-(2-hydroxypropan-2-yl)-N-(3-methy1-l,1-dioxidothietan-3-yl)-1H-indazole-5-carboxamide] | 0.0091
CC1(NC(=O)c2cnc3c(c2)c(C2(O)CCC2)nn3-c2cccc(OC(F)F)c2)CS(=O)(=O)C1 [Example 39, l-(3-(difluoromethoxy)phenyl)-3-(l-hydroxycyclobutyl)-N-(3-methyl-1,1-dioxidothietan-3-yl)-lH-pyrazolo[3,4-b]pyridine-5-carboxamide] | 0.015
C[C@]1(NC(=O)c2ccc3c(c2)c(N2CCC[C@H]2C(=O)O)nn3-c2cccc(OC(F)F)c2)CCS(=O)(=O)C1 [Example 49, (2S)-1-[1-[3-(difluoromethoxy)phenyl]-5-[[(3S)-3-methyl-1,1-dioxo-thiolan-3-yl]carbamoyl]indazol-3-yl]pyrrolidine-2-carboxylic acid] | 0.351

Continued by falling IC50, values first:

IC50 [µM] | Compound
0.078 | CCC(O)c1nn(-c2cccc(OC(F)F)c2)c2ccc(C(=O)NC3(C)CS(=O)(=O)C3)cc12 (racemic) [Example 28, 1-(3-(difluoromethoxy)phenyl)-3-(1-hydroxypropyl)-N-(3-methyl-1,1-dioxidothietan-3-yl)-1H-indazole-5-carboxamide]
0.07 | CCC(O)c1nn(-c2cccc(OC(F)F)c2)c2ccc(C(=O)NC3(C)CS(=O)(=O)C3)cc12 (single isomer, unassigned) [Example 28b, 1-(3-(difluoromethoxy)phenyl)-3-(1-hydroxypropyl)-N-(3-methyl-1,1-dioxidothietan-3-yl)-1H-indazole-5-carboxamide]
0.056 | CC(C)c1nn(-c2cncc(OC(F)F)c2)c2ccc(C(=O)NC3(C)CS(=O)(=O)C3)cc12 [Example 18]
0.046 | Cn1nccc1-c1nn(-c2cccc(OC(F)F)c2)c2ccc(C(=O)NC3(C)CS(=O)(=O)C3)cc12 [Example 1, 1-[3-(difluoromethoxy)phenyl]-N-(3-methyl-1,1-dioxo-thietan-3-yl)-3-(2-methylpyrazol-3-yl)indazole-5-carboxamide]
0.025 | CC(C)c1nn(-c2cncc(OC(F)F)c2)c2ncc(C(=O)NC3(C)CS(=O)(=O)C3)cc12 [Example 17]
0.013 | CC1(NC(=O)c2cnc3c(c2)c(C(C)(C)O)nn3-c2cc(OCC(F)F)ncc2F)CS(=O)(=O)C1 [Example 45, 1-(2-(2,2-difluoroethoxy)-5-fluoropyridin-4-yl)-3-(2-hydroxypropan-2-yl)-N-(3-methyl-1,1-dioxidothietan-3-yl)-1H-pyrazolo[3,4-b]pyridine-5-carboxamide]
0.0093 | CC(C)c1nn(-c2cccc(OC(F)F)c2)c2ncc(C(=O)NC3(C)CS(=O)(=O)C3)cc12 [Example 12]
0.0058 | CC(C)(O)Cc1nn(-c2cccc(OC(F)F)c2)c2ncc(C(=O)NC3(C)CS(=O)(=O)C3)cc12 [Example 23]
0.0022 | CC(C)c1nn(-c2cc(OCC(F)F)ncc2F)c2ncc(C(=O)NC3(C)CS(=O)(=O)C3)cc12 [Example 26, 1-(2-(2,2-difluoroethoxy)-5-fluoropyridin-4-yl)-3-isopropyl-N-(3-methyl-1,1-dioxidothietan-3-yl)-1H-pyrazolo[3,4-b]pyridine-5-carboxamide]
0.0003 | C[C@]1(NC(=O)c2ccc3c(c2)c(Oc2ccc(F)cc2)nn3-c2cccc(OC(F)F)c2)CCS(=O)(=O)C1 [Example 54, (S)-1-(3-(difluoromethoxy)phenyl)-3-(4-fluorophenoxy)-N-(3-methyl-1,1-dioxidotetrahydrothiophen-3-yl)-1H-indazole-5-carboxamide]
